The record followed here is patent publication US10166218B2, “3-(1H-indol-2-yl)-1H-pyrazolo[3,4-C]pyridines and therapeutic uses thereof” (Samumed, LLC, priority 2015, dated 2019).

Assay [1] relates to Wnt activity (Sp5-Luc reporter, TCF/LEF binding sites) in SW480 colon carcinoma cells. The experiment in a line: Screening assay for Wnt activity: Sp5-Luc reporter gene assay in stably transduced SW480 cells. The settings on record: Homo sapiens; for EC50: overnight incubation. Format: cell-based. An outline of the steps: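 SW480 cells stably transduced with an Sp5 promoter (eight TCF/LEF sites)–firefly luciferase lentiviral reporter, plated at 4,000 cells/well in 1% FBS medium with compounds (10-point 1:3 series from 10 μM, 0.1% DMSO) overnight at 37 °C. BrightGlo luminescence normalised to DMSO; EC50 by four-parameter fit, else % inhibition at 10 μM.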
A general note: A reporter such as luciferase makes a cellular process visible.

The subject of assay [2] is primary human mesenchymal stem cells (hMSCs). The experiment in a line: Induction of chondrogenesis in primary human mesenchymal stem cells (chondrogenic nodules). Format: cell-based. The settings on record: 144 h, 6 days; for Emax: nodules, relative to TGF-β3 (10 ng/mL) positive control, read-out: Max. Activity as % TGF-β3 activity. As for the experimental part: Representative compounds were screened using primary human mesenchymal stem cells (hMSCs) to determine their ability to induce chondrogenesis (process by which cartilage is developed).
Primary human mesenchymal stem cells (hMSCs) were purchased from Lonza (Walkersville, Md.) and expanded in Mesenchymal Stem Cell Growth Media (Lonza). Cells between passage 3 and 6 were used for the experiments.
Each compound was dissolved in DMSO as a 10 mM stock and used to prepare compound source plates. Serial dilution (1:3, 6-point dose-response curves from 2700 nM to 10 nM) and compound transfer was performed using the ECHO 550 (Labcyte, Sunnyvale, Calif.) into 96-well clear bottom assay plates (Greiner Bio-One) with appropriate DMSO backfill for a final DMSO concentration of 0.03%. hMSCs were plated at 20,000 cells/well in 250 μL/well Incomplete Chondrogenic Induction Medium (Lonza; DMEM, dexamethasone, ascorbate, insulin-transferrin-selenium [ITS supplement], gentamycin-amphotericin [GA-1000], sodium pyruvate, proline and L-glutamine). TGF-β3 (10 ng/mL) was used as a positive control for differentiation while negative control wells were treated with 75 nL DMSO for normalization and calculating EC50 values. Cells were incubated at 37° C. and 5% CO2 for 6 days. To image chondrogenic nodules, the cells were fixed using 4% formaldehyde (Electron Microscopy Sciences), and stained with 2 μg/mL Rhodamine B (Sigma-Aldrich) and 20 μM Nile Red (Sigma-Aldrich) [Johnson K., et. al, A Stem Cell-Based Approach to Cartilage Repair, Science, (2012), 336(6082), 717-721]. The nodules imaged (4 images per well at 4× magnification) by excitation at 531 nm and emission at 625 nm and quantified using the CellInsight CX5 (Thermo Scientific). Number of nodules in each well was normalized to the average of 3 DMSO treated wells on the same plate using Excel (Microsoft Inc.). The normalized averages (fold change over DMSO) of 3 replicate wells for each compound concentration were calculated. Due to solubility limitations of some of the compounds, curve fitting was incomplete leading to inaccurate EC50 determinations.
Using TGF-β3 as a positive control, the concentration of representative compounds required to induce 50% levels of chondrogenesis is reported. In addition, the maximum activity of each compound and the respective dose that each compound reached maximum chondrogenesis activity is reported.

What is called inhibition is the drop in the measured response relative to a control, in per cent. In the case of `O=C(CC1CCNCC1)Nc1cncc(-c2cc3c(-c4cc5c(-c6ccccn6)cccc5[nH]4)n[nH]c3cn2)c1` [Compound 621, 2-(Piperidin-4-yl)-N-(5-(3-(4-(pyridin-2-yl)-1H-indol-2-yl)-1H-pyrazolo[3,4-c]pyridin-5-yl)pyridin-3-yl)acetamide], the inhibition at 10 µM in assay [1] (10 μM, read-out: percent inhibition at 10 μM (given for EC50 of >10 μM)) was 46.2%. The compound also had an EC50 in assay [1] above 10000 nM. Also, the Emax in assay [2] was determined as 57%.
As for `CN(C)CCNc1cc(F)cc(-c2cccc3[nH]c(-c4n[nH]c5cnc(-c6cncc(O)c6)cc45)cc23)c1` [Compound 817, 5-(3-(4-(3-((2-(Dimethylamino)ethyl)amino)-5-fluorophenyl)-1H-indol-2-yl)-1H-pyrazolo[3,4-c]pyridin-5-yl)pyridin-3-ol], the EC50 was 407 nM in assay [1] and 10 nM in assay [2] (concentration required to induce 50% levels of chondrogenesis of TGF-β3 positive control, read-out: Conc (nM) of 50% TGF-β3 activity). In assay [2], the Emax was 66%.
